Laboratory results as given in patent US6706740B2, “Fungicidal heterocyclic aromatic amides and their compositions, methods of use and preparation” (Dow AgroSciences LLC, priority 1999, dated 2004).
Like-named read-outs stand apart in the source and are kept apart here.

Columns and labels:
[1] = system: Phytophthora infestans—PHYTIN; experiment: whole plant or invertebrate; format: in vivo; conditions: Phytophthora, in Solanum lycopersicum, 24 h, read-out: PHYTIN in vivo 1 Day Protectant
[2] = system: Stagonospora nodorum (Leptosphaeria nodorum—LEPTNO); experiment: In vitro fungal growth inhibition, Stagonospora nodorum (LEPTNO); format: cell-based; conditions: Leptosphaeria, read-out: LEPTNO in vitro Growth Inhibition
Erysiphe graminis—ERYSGT = experiment: Powdery Mildew of Wheat, in vivo whole plant, 24 Hour Protectant; conditions: Erysiphe, control of fungal infection vs untreated plants, read-out: ERYSGT in vivo 1 Day Protectant
[3] = system: Rhizoctonia solani (RHIZSO); experiment: microbe, parasite or virus in culture; format: cell-based; conditions: Rhizoctonia solani, read-out: RHIZSO in vitro Growth Inhibition
[4] = system: Phytophthora infestans (PHYTIN); experiment: microbe, parasite or virus in culture; format: cell-based; conditions: Phytophthora infestans, read-out: PHYTIN in vitro Growth Inhibition
Ustilago maydis (USTIMA) = experiment: microbe, parasite or virus in culture; format: cell-based; conditions: Mycosarcoma maydis, read-out: USTIMA in vitro Growth Inhibition
[5] = system: Puccinia recondita—PUCCRT; experiment: Brown Rust of Wheat, in vivo whole plant, 24 Hour Protectant; conditions: Puccinia, control of fungal infection vs untreated plants, read-out: PUCCRT in vivo 1 Day Protectant
[6] = system: Magnaporthe grisea (Pyricularia oryzae—PYRIOR); experiment: microbe, parasite or virus in culture; format: cell-based; conditions: Pyricularia oryzae, read-out: PYRIOR in vitro Growth Inhibition
Septoria tritici—SEPTTR = experiment: Leaf Blotch of Wheat, in vivo whole plant, 24 Hour Protectant; conditions: Zymoseptoria tritici, 24 h, control of fungal infection vs untreated plants, read-out: SEPTTR in vivo 1 Day Protectant
[7] = system: Leptosphaeria nodorum—LEPTNO; experiment: Glume Blotch of Wheat, in vivo whole plant, 24 Hour Protectant; conditions: control of fungal infection vs untreated plants; for pest or weed control at 100 ppm: Leptosphaeria, read-out: LEPTNO in vivo 1 Day Protectant
[8] = system: Mycosphaerella graminicola (Septoria tritici—SEPTTR); experiment: In vitro fungal growth inhibition, Mycosphaerella graminicola (SEPTTR); format: cell-based; conditions: Zymoseptoria tritici, read-out: SEPTTR in vitro Growth Inhibition
[9] = wheat plants sprayed at 100 ppm, inoculated after 24 hours
[10] = 100 ppm spray, 24 hour protectant, wheat
[11] = 100 ppm spray, wheat, 24 hour protectant

SMILES | pest or weed control at 100 ppm [1] | inhibition at 25 ppm ([2]; 25 ppm in the growth medium) | pest or weed control at 100 ppm (Erysiphe graminis—ERYSGT; [9]) | inhibition at 25 ppm [3] | inhibition at 25 ppm [4] | inhibition at 25 ppm (Ustilago maydis (USTIMA)) | pest or weed control at 100 ppm [5, 9] | melting point | inhibition at 25 ppm [6] | pest or weed control at 100 ppm (Septoria tritici—SEPTTR; [9]) | pest or weed control at 100 ppm [7, 9] | inhibition at 25 ppm ([8]; 25 ppm in the growth medium) | inhibition at 25 ppm ([2]; 25 ppm in growth medium) | inhibition at 25 ppm ([8]; 25 ppm in growth medium) | also measured
CC1(C)CC(NC(=O)c2nccnc2O)CC(C)(C)C1 [Compound 533] | 25 to 74% | < 80% | < 25% | < 80% | < 80% | < 80% | 25 to 74% | 248 to 250 °C (dec.) | < 80% | 25 to 74% | 25 to 74% | < 80% | – | – | –
COc1cc(NC(=O)c2ncccc2O)cc(OC)c1 [Compound 216] | < 25% | – | – | < 80% | < 80% | < 80% | – | 127 to 129 °C | > 80% | – | – | – | < 80% | < 80% | pest or weed control at 100 ppm (Erysiphe graminis—ERYSGT; [10]): < 25%; pest or weed control at 100 ppm [5, 10]: < 25%; pest or weed control at 100 ppm (Septoria tritici—SEPTTR; [10]): < 25%; pest or weed control at 100 ppm [7, 10]: < 25%
COc1ccnc(C(=O)NC2CSCC(c3ccccc3)C2)c1O (stereo not drawn) [Compound 324] | < 25% | – | – | > 80% | > 80% | > 80% | – | 141 to 143 °C | < 80% | – | – | – | > 80% | > 80% | pest or weed control at 100 ppm (Erysiphe graminis—ERYSGT; [10]): 25 to 74%; pest or weed control at 100 ppm [5, 10]: 25 to 74%; pest or weed control at 100 ppm (Septoria tritici—SEPTTR; [10]): 25 to 74%; LEPTNO in vivo 1 Day Protectant [7, 10]: + +
COc1ccnc(C(=O)Nc2ccc(OC3CC(C)(C)CC(C)(C)C3)cc2)c1O [Compound 458] | < 25% | – | – | < 80% | < 80% | < 80% | – | 141 to 142 °C | < 80% | – | – | – | > 80% | < 80% | pest or weed control at 100 ppm (Erysiphe graminis—ERYSGT; [11]): < 25%; pest or weed control at 100 ppm [5, 11]: 25 to 74%; pest or weed control at 100 ppm (Septoria tritici—SEPTTR; [11]): < 25%; LEPTNO in vivo 1 Day Protectant [7, 11]: + +
O=C(Nc1ccc(Oc2cccc(C(F)(F)F)c2)cc1)c1nccnc1O [Compound 535] | < 25% | < 80% | < 25% | > 80% | < 80% | < 80% | 25 to 74% | 239 to 243 °C (dec.) | < 80% | 25 to 74% | 25 to 74% | < 80% | – | – | –
CC(C)C(=O)O[C@H]1[C@H](C)OC(=O)[C@@H](NC(=O)c2cncnc2O)COC(=O)[C@@H]1Cc1ccccc1 [Compound 540] | < 25% | < 80% | < 25% | < 80% | < 80% | < 80% | < 25% | 195 °C (dec.) | < 80% | 25 to 74% | < 25% | < 80% | – | – | –
COc1ccnc(C(=O)Nc2ccc(Nc3cccc(C(F)(F)F)c3)cc2)c1O [Compound 410] | < 25% | – | – | < 80% | < 80% | < 80% | – | 204 to 205 °C | < 80% | – | – | – | < 80% | < 80% | pest or weed control at 100 ppm (Erysiphe graminis—ERYSGT; [11]): < 25%; pest or weed control at 100 ppm [5, 11]: < 25%; pest or weed control at 100 ppm (Septoria tritici—SEPTTR; [11]): < 25%; pest or weed control at 100 ppm [7, 11]: 25 to 74%
COc1ccnc(C(=O)Nc2ccc(NC(=O)c3cccc(C(F)(F)F)c3)cc2)c1O [Compound 453] | < 25% | – | – | < 80% | < 80% | < 80% | – | 240 to 242 °C | < 80% | – | – | – | < 80% | < 80% | pest or weed control at 100 ppm (Erysiphe graminis—ERYSGT; [11]): < 25%; pest or weed control at 100 ppm [5, 11]: < 25%; pest or weed control at 100 ppm (Septoria tritici—SEPTTR; [11]): 25 to 74%; pest or weed control at 100 ppm [7, 11]: 25 to 74%
O=C(NC(Cc1ccccc1)c1ccccc1)c1cccnc1O (stereo not drawn) [Compound 519] | < 25% | < 80% | < 25% | < 80% | < 80% | < 80% | < 25% | 190 to 192 °C | < 80% | < 25% | 25 to 74% | < 80% | – | – | –
COc1ccnc(C(=O)NC2COC(=O)C[C@H](NC(=O)OCc3ccccc3)C(=O)OC2)c1O (stereo partly drawn) [Compound 376] | < 25% | – | – | < 80% | < 80% | < 80% | – | 190 to 192 °C | < 80% | – | – | – | < 80% | < 80% | pest or weed control at 100 ppm (Erysiphe graminis—ERYSGT; [11]): 25 to 74%; pest or weed control at 100 ppm [5, 11]: < 25%; pest or weed control at 100 ppm (Septoria tritici—SEPTTR; [11]): 25 to 74%; pest or weed control at 100 ppm [7, 11]: 25 to 74%
Cc1ccnc(C(=O)Nc2ccc(Oc3cccc(C(F)(F)F)c3)cc2)c1O [Compound 238] | < 25% | – | – | < 80% | < 80% | < 80% | – | 105 to 107 °C | < 80% | – | – | – | < 80% | < 80% | pest or weed control at 100 ppm (Erysiphe graminis—ERYSGT; [10]): < 25%; pest or weed control at 100 ppm [5, 10]: < 25%; pest or weed control at 100 ppm (Septoria tritici—SEPTTR; [10]): < 25%; pest or weed control at 100 ppm [7, 10]: 25 to 74%
COc1nc(O)c(C(=O)N[C@H]2COC(=O)[C@H](Cc3ccccc3)[C@@H](OC(=O)C(C)C)[C@H](C)OC2=O)nc1Cl [Compound 537] | < 25% | < 80% | < 25% | < 80% | < 80% | < 80% | 25 to 74% | 84 to 86 °C | < 80% | 25 to 74% | – | < 80% | – | – | LEPTNO in vivo 1 Day Protectant [7, 9]: + +
O=C(NCc1ccc(Cl)cc1)c1ncccc1O [Compound 220] | 25 to 74% | – | – | > 80% | > 80% | > 80% | – | 95 to 97 °C | > 80% | – | – | – | > 80% | > 80% | pest or weed control at 100 ppm (Erysiphe graminis—ERYSGT; [10]): < 25%; pest or weed control at 100 ppm [5, 10]: < 25%; pest or weed control at 100 ppm (Septoria tritici—SEPTTR; [10]): < 25%; pest or weed control at 100 ppm [7, 10]: < 25%
Cc1nc(O)c(C(=O)NC2CC(C)(C)CC(C)(C)C2)cc1Cl [Compound 530] | < 25% | < 80% | < 25% | < 80% | < 80% | < 80% | 25 to 74% | 329 to 331 °C | < 80% | 25 to 74% | 25 to 74% | < 80% | – | – | –
CSc1nnc(C(=O)Nc2ccc(Oc3cccc(C(F)(F)F)c3)cc2)c(O)n1 [Compound 548] | 25 to 74% | < 80% | < 25% | < 80% | < 80% | < 80% | < 25% | 261 to 265 °C | < 80% | 25 to 74% | 25 to 74% | < 80% | – | – | –
